# Assay results published in US11370794B2, “Toll-like receptor antagonist compounds and methods of use” (Dynavax Technologies Corporation, priority 2016, dated 2022).
# Like-named read-outs stand apart in the source and are kept apart here.
# Key:
# human TLR8 = molecular target: T1, human TLR8 (Homo sapiens, UniProt Q9NR97); experiment: Inhibition of human TLR8 in human monocytes (TNF-alpha / IL-1 beta ELISA); format: cell-based; conditions: for IC50: human monocytes, agonist ORN8L 100 μg/mL, 24 hours; for inhibits TLR8-dependent responses (in words): summary statement of the description
# T1 construct: endogenous in cells; host or cells: primary human monocytes (CD14 microbeads) from buffy coats of healthy donors
# T1 sequence (Q9NR97 27-1041): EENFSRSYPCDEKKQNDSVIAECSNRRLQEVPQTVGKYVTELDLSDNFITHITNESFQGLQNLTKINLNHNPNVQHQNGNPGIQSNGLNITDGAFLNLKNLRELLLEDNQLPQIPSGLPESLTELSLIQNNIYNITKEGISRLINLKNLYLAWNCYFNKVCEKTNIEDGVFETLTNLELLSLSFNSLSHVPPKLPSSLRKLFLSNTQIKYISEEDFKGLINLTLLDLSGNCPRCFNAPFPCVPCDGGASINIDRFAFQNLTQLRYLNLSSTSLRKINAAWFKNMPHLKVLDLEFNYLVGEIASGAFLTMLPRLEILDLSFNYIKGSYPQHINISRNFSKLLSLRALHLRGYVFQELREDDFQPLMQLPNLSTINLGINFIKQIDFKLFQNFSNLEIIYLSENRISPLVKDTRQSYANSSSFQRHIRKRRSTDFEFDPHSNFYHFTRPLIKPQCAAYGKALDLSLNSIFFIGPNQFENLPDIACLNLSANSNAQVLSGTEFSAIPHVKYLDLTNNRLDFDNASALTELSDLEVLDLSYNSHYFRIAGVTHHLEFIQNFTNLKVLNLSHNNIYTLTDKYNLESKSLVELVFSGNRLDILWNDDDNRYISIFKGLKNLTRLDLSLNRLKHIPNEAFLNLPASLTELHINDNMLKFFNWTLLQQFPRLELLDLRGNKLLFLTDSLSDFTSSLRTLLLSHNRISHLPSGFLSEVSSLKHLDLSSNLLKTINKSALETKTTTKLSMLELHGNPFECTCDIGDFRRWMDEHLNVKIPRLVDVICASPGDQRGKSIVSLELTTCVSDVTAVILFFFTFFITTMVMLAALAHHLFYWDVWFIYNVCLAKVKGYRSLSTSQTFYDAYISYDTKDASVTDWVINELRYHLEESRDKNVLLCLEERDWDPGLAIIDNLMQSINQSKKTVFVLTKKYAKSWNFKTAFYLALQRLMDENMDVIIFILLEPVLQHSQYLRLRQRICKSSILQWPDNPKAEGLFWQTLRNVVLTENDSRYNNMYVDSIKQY
# Source text: Example B2—Inhibition of Human TLR8 in Human Monocytes
# When placed in cell culture, engagement of TLR8 with an agonist leads to expression and release of cytokines into the media.
# Buffy coats from anonymized, healthy human donors. CD14 microbeads (Milteny Cat. No. 130-050-201). TLR8 agonist, (5′-M2UGCUGCUUGUG-/glycerol/-GUGUUCGUCGUM2-5′ with M2=C6-linker, ORN8L, RNA oligonucleotide (Chem Genes Corp.). Human TNF-alpha ELISA kit (Mabtech Cat. No. 3510-1H-20). Human interleukin (IL)-1 beta ELISA kit (Mabtech Cat. No. 3415-1H-20).
# Following isolation of monocytes from buffy coats, human monocytes were plated into 96 well plates at approximately 200,000 cells per well. Test compounds were serially diluted and added to the plates. Immediately after adding test compounds, the TLR8 agonist (ORN8L, RNA oligonucleotide) was added to a final concentration of 100 μg/mL. Cells were incubated for 24 hours at 37° C. A portion of the media supernatant was analyzed for the presence of TNF-alpha and/or IL-1 beta using ELISA kits. The amount of TNF-alpha or IL-1 beta produced is a reflection of the amount of TLR8-dependent receptor activity. The IC50 values (the concentration at which 50% of the TLR8-dependent receptor activity is reduced) were calculated based upon the TLR8-dependent receptor activity over a range of different test compound concentrations.
# human TLR9 = molecular target: T2, human TLR9 (Homo sapiens, UniProt Q9NR96); experiment: Inhibition of human TLR9 in human B cells (IL-6 ELISA); format: cell-based; conditions: for IC50: human B cells, agonist 1018 ISS 1 μM, IL-6 readout, 48 hours, range about 0.01 to 10 μM, read-out: Human TLR9 IC50; for inhibits TLR9-dependent responses (in words): summary statement of the description
# T2 construct: endogenous in cells; host or cells: primary human B cells (CD19 microbeads) from buffy coats of healthy donors
# T2 sequence (Q9NR96 26-1032): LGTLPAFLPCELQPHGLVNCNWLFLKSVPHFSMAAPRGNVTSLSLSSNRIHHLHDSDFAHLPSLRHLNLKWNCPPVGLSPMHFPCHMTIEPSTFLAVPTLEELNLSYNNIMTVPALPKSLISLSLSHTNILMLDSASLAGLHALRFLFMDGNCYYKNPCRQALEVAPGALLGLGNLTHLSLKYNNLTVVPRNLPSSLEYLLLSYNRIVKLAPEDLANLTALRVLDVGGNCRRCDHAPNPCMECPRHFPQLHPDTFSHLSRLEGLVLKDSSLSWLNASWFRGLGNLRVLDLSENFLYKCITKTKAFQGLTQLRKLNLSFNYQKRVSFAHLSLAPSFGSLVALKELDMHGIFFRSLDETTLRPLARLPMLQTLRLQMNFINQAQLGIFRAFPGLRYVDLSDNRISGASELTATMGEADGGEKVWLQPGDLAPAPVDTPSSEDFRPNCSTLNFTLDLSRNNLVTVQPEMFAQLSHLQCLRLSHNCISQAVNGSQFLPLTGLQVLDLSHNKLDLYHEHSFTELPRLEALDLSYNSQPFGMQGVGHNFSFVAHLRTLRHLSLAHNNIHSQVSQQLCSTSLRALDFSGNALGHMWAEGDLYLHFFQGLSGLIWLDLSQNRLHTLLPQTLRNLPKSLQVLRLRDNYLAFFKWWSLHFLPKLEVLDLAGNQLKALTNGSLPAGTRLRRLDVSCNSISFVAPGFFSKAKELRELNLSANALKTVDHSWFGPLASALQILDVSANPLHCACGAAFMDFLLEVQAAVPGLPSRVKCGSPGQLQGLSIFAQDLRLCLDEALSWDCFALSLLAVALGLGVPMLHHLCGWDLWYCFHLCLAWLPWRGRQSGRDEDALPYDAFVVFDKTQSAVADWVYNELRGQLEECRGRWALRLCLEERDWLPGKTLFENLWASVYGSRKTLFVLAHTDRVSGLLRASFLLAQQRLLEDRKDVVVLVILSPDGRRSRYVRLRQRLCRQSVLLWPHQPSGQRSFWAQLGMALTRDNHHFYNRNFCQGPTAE
# Method: Example B3—Inhibition of Human TLR9 in Human B Cells
# When placed in cell culture, engagement of TLR9 with an agonist leads to expression and release of cytokines into the media.
# Buffy coats from anonymized, healthy human donors. CD19 microbeads (Miltenyi Cat. No. 130-050-301). TLR9 agonist, 1018 ISS, CpG-containing DNA oligonucleotide. Human interleukin (IL)-6 ELISA kit (Mabtech Cat. No. 3460-1H-20).
# Following isolation of […] from buffy coats, human B cells were plated into 96 well plates at approximately 300,000 cells per well. Test compounds were serially diluted and added to the plates. Test compounds were typically assayed using a concentration range from about 0.01 μM to about 10 μM. Certain test compounds were further assayed in an expanded dilution series using a compound concentration range from about 0.001 μM to about 30 μM. Immediately after adding test compounds, the TLR9 agonist (1018 ISS, CpG-containing DNA oligonucleotide) was added to a final concentration of 1 μM. Cells were incubated for 48 hours at 37° C. A portion of the media supernatant was analyzed for the presence of IL-6 using ELISA kits. The amount of IL-6 produced is a reflection of the amount of TLR9-dependent receptor activity. The IC50 values (the concentration at which 50% of the TLR9-dependent receptor activity is reduced) were calculated based upon the TLR9-dependent receptor activity over a range of different test compound concentrations.
# [1] = IL-1 beta readout, read-out: Human TLR8 IC50 IL-1b
# [2] = TNF-alpha readout, read-out: Human TLR8 IC50 TNF-a
Structure (SMILES),IC50 (human TLR8; [1]) [nM],IC50 (human TLR8; [2]) [nM],IC50 (human TLR9) [nM],inhibits TLR9-dependent responses (in words) (human TLR9),inhibits TLR8-dependent responses (in words) (human TLR8)
"Cc1ccc(-n2cc3cnnc(N4CCC(C(=O)N5CCC(CN(C)C)C5)CC4)c3n2)cc1 (stereo not drawn) [compound 60, (3-((dimethylamino)methyl)pyrrolidin-1-yl)(1-(2-(p-tolyl)-2H-pyrazol[3,4-d]pyridazin-7-yl)piperidin-4-yl)methanone]",–,980,2,–,–
"Cc1ccc(-n2nc3c(N4CCC(C(=O)NCCCN5CCOCC5)CC4)nnc(C)c3c2C)cc1 [Compound No. 19x, 1-(3,4-dimethyl-2-(p-tolyl)-2H-pyrazolo[3,4-d]pyridazin-7-yl)-N-(3-morpholinopropyl)piperidine-4-carboxamide]",740,740,18,inhibit,–
"Cc1nnc(N2CCC(C(=O)NCCCN(C)C)CC2)c2nn(-c3ccsc3)c(C)c12 [compound 24, 1-(3,4-dimethyl-2-(thiophen-3-yl)-2H-pyrazolo[3,4-d]pyridazin-7-yl)-N-(3-(dimethylamino)propyl)piperidine-4-carboxamide]",–,≥ 20000,400,–,–
Cc1ccc(-n2nc3c(N4CCC(C(=O)NCCCN5CCCc6ccccc65)CC4)nnc(C)c3c2C)cc1 [2-5],> 10000,> 10000,> 10000,–,–
"Cc1ccc(-n2cc3cnnc(N4CCC(CCC(=O)NCCN(C)C)CC4)c3n2)cc1 [compound 61, N-(2-(dimethylamino)ethyl)-3-(1-(2-(p-tolyl)-2H-pyrazolo[3,4-d]pyridazin-7-yl)piperidin-4-yl)propanamide]",–,4850,9,–,–
"Cc1ccc(-n2nc3c(N4CCC(C(=O)N5CCC(N(C)Cc6ccccc6)CC5)CC4)nnc(C)c3c2C)cc1 [compound 67, (4-(benzyl(methyl)amino)piperidin-1-yl)(1-(3,4-dimethyl-2-(p-tolyl)-2H-pyrazolo[3,4-d]pyridazin-7-yl)piperidin-4-yl)methanone]",–,480,49,inhibit,inhibit
"Cc1ccc(-n2nc3c(N4CCC(C(=O)N5CC6CN(C)CC6C5)CC4)nnc(C)c3c2C)cc1 (stereo not drawn) [compound 72, (1-(3,4-dimethyl-2-(p-tolyl)-2H-pyrazolo[3,4-d]pyridazin-7-yl)piperidin-4-yl)(5-methylhexahydropyrrolo[3,4-c]pyrrol-2(1H)-yl)methano]",–,9170,12,–,–
"Cc1ccc(-n2nc3c(N4CCC(C(=O)N5CCC6(CNC6)C5)CC4)nnc(C)c3c2C)cc1 [compound 74, (1-(3,4-dimethyl-2-(p-tolyl)-2H-pyrazolo[3,4-d]pyridazin-7-yl)piperidin-4-yl)(2,6-diazaspiro[3.4]octan-6-yl)methanone]",–,≥ 20000,2590,–,–
"Cc1nnc(N2CCC(C(=O)NCCCN(C)C)CC2)c2nn(C3CCOCC3)c(C)c12 [compound 25, 1-(3,4-dimethyl-2-(tetrahydro-2H-pyran-4-yl)-2H-pyrazolo[3,4-d]pyridazin-7-yl)-N-(3-(dimethylamino)propyl)piperidine-4-carboxamide]",–,≥ 20000,> 10000,–,–

# Second part, the compound after the results:
IC50 (human TLR8; [1]) [nM],IC50 (human TLR8; [2]) [nM],IC50 (human TLR9) [nM],inhibits TLR9-dependent responses (in words) (human TLR9),inhibits TLR8-dependent responses (in words) (human TLR8),Structure (SMILES)
3940,3560,29,–,–,"Cc1nnc(N2CCCC(C(=O)NCCCN3CCOCC3)C2)c2nn(-c3ccccc3)c(C)c12 (stereo not drawn) [49x, 1-(3,4-dimethyl-2-phenyl-2H-pyrazolo[3,4-d]pyridazin-7-yl)-N-(3-morpholinopropyl)piperidine-3-carboxamide]"
330,230,6,inhibit,inhibit,"CCN1CCN(C(=O)C2CCN(c3nnc(C)c4c(C)n(-c5ccc(C)cc5)nc34)CC2)CC1 [51x, (1-(3,4-dimethyl-2-(p-tolyl)-2H-pyrazolo[3,4-d]pyridazin-7-yl)piperidin-4-yl)(4-ethylpiperazin-1-yl)methanone]"
4540,4850,41,inhibit,–,"CCCCN(CC)CCNC(=O)C1CCN(c2nnc(C)c3c(C)n(-c4ccccc4)nc23)CC1 [25x, N-(2-(butyl(ethyl)amino)ethyl)-1-(3,4-dimethyl-2-phenyl-2H-pyrazolo[3,4-d]pyridazin-7-yl)piperidine-4-carboxamide]"
> 10000,> 10000,40,inhibit,–,"CCN(CC)CCCNC(=O)C1CCN(c2nnc(C)c3c(C)n(-c4ccc(OC)cc4)nc23)CC1 [9x, N-(3-(diethylamino)propyl)-1-(2-(4-methoxyphenyl)-3,4-dimethyl-2H-pyrazolo[3,4-d]pyridazin-7-yl)piperidine-4-carboxamide]"
